Tests used:
MDA-MB-231 = assay: Cell viability assay (CCK-8), MDA-MB-231; assay type: cell-based, human; details: Homo sapiens, MDA-MB-231, 72 h, TNBC cell line; CCK-8, 72 h, 0.156 to 40 μM
Procedure: (§1) Four human TNBC cell lines (MDA-MB-231, MDA-MB-453, SUM-159, and BT-20), a non-TNBC breast cancer cell line (MCF-7) and a normal mammary epithelial cell line (MCF-10A) were cultured with DMEM (phenol free) supplemented with 2.5% CS-FBS and 1% L-Glu. 1.2 × 10^3 of cells were seeded into 384-well microplates and maintained for 24 h in an incubator at 37 °C in a 5% CO2, saturated humidified atmosphere. […] […] Then CCK-8 solution was added into cells and incubated for another 4 h. Absorbance was measured with a Microplate Reader at 450/600 nm. The IC50 values of the compounds on TNBC cell lines were derived using GraphPad Prism 5.0 (GraphPad Software, Inc., La Jolla, CA, USA).

MDA-MB-453 = assay: Cell viability assay (CCK-8), MDA-MB-453; assay type: cell-based; details: Homo sapiens, TNBC cell line, CCK-8, 72 h, 0.156 to 40 μM
Procedure: (§2) Four human TNBC cell lines (MDA-MB-231, MDA-MB-453, SUM-159, and BT-20), a non-TNBC breast cancer cell line (MCF-7) and a normal mammary epithelial cell line (MCF-10A) were cultured with DMEM (phenol free) supplemented with 2.5% CS-FBS and 1% L-Glu. 1.2 × 10^3 of cells were seeded into 384-well microplates and maintained for 24 h in an incubator at 37 °C in a 5% CO2, saturated humidified atmosphere. Different compounds were added into cells with 9 concentrations from 0.156 to 40 μM for 72 h. […] Then CCK-8 solution was added into cells and incubated for another 4 h. Absorbance was measured with a Microplate Reader at 450/600 nm. The IC50 values of the compounds on TNBC cell lines were derived using GraphPad Prism 5.0 (GraphPad Software, Inc., La Jolla, CA, USA).

SUM-159 = assay: Cell viability assay (CCK-8), SUM-159; assay type: cell-based, human; details: Homo sapiens, SUM159, 72 h, TNBC cell line; CCK-8, 72 h, 0.156 to 40 μM
Procedure: as §1

BT-20 = assay: Cell viability assay (CCK-8), BT-20; assay type: cell-based; details: Homo sapiens, TNBC cell line, CCK-8, 72 h, 0.156 to 40 μM
Procedure: as §2

MCF-7 = assay: Cell viability assay (CCK-8), MCF-7; assay type: cell-based, human; details: Homo sapiens, MCF7, 72 h, non-TNBC breast cancer cell line; CCK-8, 72 h
Procedure: as §1

[1] = test system: signal transducer and activator of transcription 3 (STAT3); parameters: method as in ref 21, 22 = [21]; 21. Tweardy D.J. Huang X. Kasembeli M.M. Stat3 Inhibitors W.O. Patent 2009149192 A1 10 12 2009 || [22]; 22. Tweardy D.J. Kasembeli M.M. Xu M.X. Eckols T.K. Methods and Compositions for Treatment of Muscle Wasting, Muscle Weakness, and/or Cachexia Using Inhibitors of Stat3 W.O. Patent 2015010107 A1 22 1; details: antitumor agent; cited from earlier work

IC50 (MDA-MB-231): 6.22 µM
IC50 (MDA-MB-453): 4.61 µM
IC50 (BT-20): > 40 µM
IC50 (MCF-7): > 40 µM
Structure (SMILES): COc1ccc(S(=O)(=O)Nc2cc(Cl)c(O)c3ccccc23)cc1 [Compound 2-9]
IC50 (SUM-159): 18.1 µM
inhibition of STAT3 (in words) [1]: inhibition
